This note sets out measurements from patent publication US20220095622A1, “Application of Compounds Inhibiting Synthesis of Very Long Chain Fatty Acids in Preventing and Treating Microbial Pathogens and Method Thereof” (Sichuan Agricultural University, priority 2019, published 2022).

Broadly, the inhibition is the relative decrease from the control value, in per cent.

Holding throughout (type): in vivo
Experiment [1] deals with Magnaporthe oryzae. In words: whole plant or invertebrate. The following applies: for inhibition at 100 µM / inhibition at 500 µM: Pyricularia oryzae, read-out: inhibition rate on the number of necrotic spots.
Experiment [2] relates to Magnaporthe oryzae. Nature of the experiment: whole plant or invertebrate. To be noted: Pyricularia oryzae, read-out: inhibition rate of formation of rice blast necrotic spots, prevention experimental group.
The test system of experiment [3] is Magnaporthe oryzae. In words: whole plant or invertebrate. To be noted: Pyricularia oryzae, read-out: inhibition rate of formation of rice blast necrotic spots, treatment experimental group.
Experiment [4] concerns Bipolaris maydis. In words: whole plant or invertebrate. The following applies: for inhibition at 500 µM: Bipolaris maydis, in Zea mays, read-out: inhibition rate on the formation of disease spots.
In experiment [5] the test system is Blumeria graminis. In words: Pathogenicity of Blumeria graminis on wheat leaves. To be noted: 500 μmol/L, vs DMSO.

Like-named read-outs stand apart in the source and are kept apart here.

For `CCN(CC)C(=O)n1cnc(S(=O)(=O)c2c(C)cc(C)cc2C)n1` [Cafenstrole], the inhibition at 100 µM in experiment [1] is above 50%. Moreover, the inhibition at 500 µM in experiment [1], in experiment [2], in experiment [3] and in experiment [4] was above 50% in each case.
With `CC(C)N(C(=O)COc1nnc(C(F)(F)F)s1)c1ccc(F)cc1` [Flufenacet], the “inhibition of formation of disease spots on corn leaves (in words)” value in experiment [4] (in vivo) is “not obvious”.
In the case of `CCCCOCN(C(=O)CCl)c1c(CC)cccc1CC` [Butachlor], the inhibition at 500 µM in experiment [1] and in experiment [4] was above 50% each time.
On to `Cc1cccc(C)c1N(Cn1cccn1)C(=O)CCl` [Metazachlor], for which the inhibition at 100 µM in experiment [1] was above 50%. Also, the inhibition at 500 µM in experiment [1], in experiment [2], in experiment [3] and in experiment [4] was above 50% each time.
Take `CC(C)N(C(=O)SC/C(Cl)=C/Cl)C(C)C` [Diallate]: the inhibition at 100 µM in experiment [1] is above 50%. The inhibition at 500 µM in experiment [1], in experiment [2] and in experiment [3] was above 50% in each case.
Take `CC(C)N(C(=O)CCl)c1ccccc1` [Propachlor]: the “inhibition of the number of necrotic spots of Magnaporthe oryzae (in words)” value in experiment [1] (drug concentration 100 μM, 30 seedlings sprayed with 5 mL, rice) is “insignificant inhibitory effect on rice blast”. The inhibition at 500 µM in experiment [4] is above 50%. The “inhibition of occurrence of Blumeria graminis disease spots (in words)” value in experiment [5] is given as “all drugs except Propachlor could inhibit the occurrence of Blumeria graminis disease spots”.
